As a reminder, the IC50 is the concentration at which inhibition is half-maximal.

IC50 data for 56 compounds are collected here from US8211935B2, “Heterocyclic derivatives for modulation of calcium channels” (Vertex Pharmaceuticals Incorporated, priority 2004, dated 2012).

Read-outs that look alike come from different tables or passages of the source. Where only a bound is given, the exact number is not on record here.

For this experiment, the target named is T1, CaV2.2 (Homo sapiens, UniProt Q00975).
T1 construct: expressed in transfected cells; host or cells: HEK293
The experiment in a line: VIPR optical membrane potential assay with electrical stimulation. In kind it is cell-based. As for the experimental part: Antagonist properties of test compounds were assessed as follows. Cells expressing the CaV of interest were placed into microtiter plates. After an incubation period, the cells were stained with fluorescent dyes sensitive to the transmembrane potential. The test compounds were added to the microtiter plate. The cells were stimulated with electrical means to evoke a CaV dependent membrane potential change from unblocked channels, which was detected and measured with trans-membrane potential-sensitive dyes. Antagonists were detected as a decreased membrane potential response to the stimulus.
VIPR® Optical Membrane Potential Assay Method with Electrical Stimulation
The following is an example of how CaV2.2 inhibition activity is measured using the optical membrane potential method. Other subtypes are performed in an analogous mode in a cell line expressing the CaV of interest.
HEK293 cells stably expressing CaV2.2 are plated into 96-well microtiter plates. After an appropriate incubation period, the cells are stained with the voltage sensitive dyes CC2-DMPE/DiSBAC2(3) as follows.
2×CC2-DMPE=20 μM CC2-DMPE: 10 mM CC2-DMPE is vortexed with an equivalent volume of 10% Pluronic, followed by vortexing in required amount of HBSS containing 10 mM HEPES. Each cell plate will require 5 mL of 2×CC2-DMPE. 50 μL of 2×CC2-DMPE is added to wells containing washed cells, resulting in a 10 μM final staining concentration. The cells are stained for 30 minutes in the dark at RT.
Vortex in required amount of Bath X with beta-cyclodextrin. Each 96 well cell plate will require 5 ml of 2×CC2DMPE. Wash plate with ELx405 with Bath X, leaving a residual volume of 50 μL/well. Add 50 μL of 2×CC2DMPE & DISBAC6(3) to each well. Stain for 30 minutes in the dark at RT.
Allow solution to sit for 10 minutes. Slowly mix in 370 mM BaCl2. This solution can be used to solvate compound plates. Note that compound plates are made at 1.5× drug concentration and not the usual 2×. Wash CC2 stained plate, again, leaving residual volume of 50 pt. Add 100 uL/well of the AY17 solution. Stain for 15 minutes in the dark at RT. Run plate on the optical reader.
The instrument comprises a microtiter plate handler, an optical system for exciting the coumarin dye while simultaneously recording the coumarin and oxonol emissions, a waveform generator, a current- or voltage-controlled amplifier, and a device for inserting electrodes in well. Under integrated computer control, this instrument passes user-programmed electrical stimulus protocols to cells within the wells of the microtiter plate.
Insert or use electrodes into each well to be assayed.
Use the current-controlled amplifier to deliver stimulation wave pulses for 3-5 s. Two seconds of pre-stimulus recording are performed to obtain the un-stimulated intensities. Five seconds of post-stimulation recording are performed to examine the relaxation to the resting state.
Data are analyzed and reported as normalized ratios of background-subtracted emission intensities measured in the 460 nm and 580 nm channels. Background intensities are then subtracted from each assay channel. Background intensities are obtained by measuring the emission intensities during the same time periods from identically treated assay wells in which there are no cells. The response as a function of time is then reported as the ratios obtained using the following formula: […]
The data is further reduced by calculating the initial (Ri) and final (Rf) ratios. These are the average ratio values during part or all of the pre-stimulation period, and during sample points during the stimulation period. The response to the stimulus R=Rf/Ri is then calculated.
Control responses are obtained by performing assays in the presence of a compound with the desired properties (positive control), such as mibefradil, and in the absence of pharmacological agents (negative control). Responses to the negative (N) and positive (P) controls are calculated as above.

Where [1] appears, read: Table 3, biological assay data, read-out: IC50.

T1 sequence (Q00975 whole entry): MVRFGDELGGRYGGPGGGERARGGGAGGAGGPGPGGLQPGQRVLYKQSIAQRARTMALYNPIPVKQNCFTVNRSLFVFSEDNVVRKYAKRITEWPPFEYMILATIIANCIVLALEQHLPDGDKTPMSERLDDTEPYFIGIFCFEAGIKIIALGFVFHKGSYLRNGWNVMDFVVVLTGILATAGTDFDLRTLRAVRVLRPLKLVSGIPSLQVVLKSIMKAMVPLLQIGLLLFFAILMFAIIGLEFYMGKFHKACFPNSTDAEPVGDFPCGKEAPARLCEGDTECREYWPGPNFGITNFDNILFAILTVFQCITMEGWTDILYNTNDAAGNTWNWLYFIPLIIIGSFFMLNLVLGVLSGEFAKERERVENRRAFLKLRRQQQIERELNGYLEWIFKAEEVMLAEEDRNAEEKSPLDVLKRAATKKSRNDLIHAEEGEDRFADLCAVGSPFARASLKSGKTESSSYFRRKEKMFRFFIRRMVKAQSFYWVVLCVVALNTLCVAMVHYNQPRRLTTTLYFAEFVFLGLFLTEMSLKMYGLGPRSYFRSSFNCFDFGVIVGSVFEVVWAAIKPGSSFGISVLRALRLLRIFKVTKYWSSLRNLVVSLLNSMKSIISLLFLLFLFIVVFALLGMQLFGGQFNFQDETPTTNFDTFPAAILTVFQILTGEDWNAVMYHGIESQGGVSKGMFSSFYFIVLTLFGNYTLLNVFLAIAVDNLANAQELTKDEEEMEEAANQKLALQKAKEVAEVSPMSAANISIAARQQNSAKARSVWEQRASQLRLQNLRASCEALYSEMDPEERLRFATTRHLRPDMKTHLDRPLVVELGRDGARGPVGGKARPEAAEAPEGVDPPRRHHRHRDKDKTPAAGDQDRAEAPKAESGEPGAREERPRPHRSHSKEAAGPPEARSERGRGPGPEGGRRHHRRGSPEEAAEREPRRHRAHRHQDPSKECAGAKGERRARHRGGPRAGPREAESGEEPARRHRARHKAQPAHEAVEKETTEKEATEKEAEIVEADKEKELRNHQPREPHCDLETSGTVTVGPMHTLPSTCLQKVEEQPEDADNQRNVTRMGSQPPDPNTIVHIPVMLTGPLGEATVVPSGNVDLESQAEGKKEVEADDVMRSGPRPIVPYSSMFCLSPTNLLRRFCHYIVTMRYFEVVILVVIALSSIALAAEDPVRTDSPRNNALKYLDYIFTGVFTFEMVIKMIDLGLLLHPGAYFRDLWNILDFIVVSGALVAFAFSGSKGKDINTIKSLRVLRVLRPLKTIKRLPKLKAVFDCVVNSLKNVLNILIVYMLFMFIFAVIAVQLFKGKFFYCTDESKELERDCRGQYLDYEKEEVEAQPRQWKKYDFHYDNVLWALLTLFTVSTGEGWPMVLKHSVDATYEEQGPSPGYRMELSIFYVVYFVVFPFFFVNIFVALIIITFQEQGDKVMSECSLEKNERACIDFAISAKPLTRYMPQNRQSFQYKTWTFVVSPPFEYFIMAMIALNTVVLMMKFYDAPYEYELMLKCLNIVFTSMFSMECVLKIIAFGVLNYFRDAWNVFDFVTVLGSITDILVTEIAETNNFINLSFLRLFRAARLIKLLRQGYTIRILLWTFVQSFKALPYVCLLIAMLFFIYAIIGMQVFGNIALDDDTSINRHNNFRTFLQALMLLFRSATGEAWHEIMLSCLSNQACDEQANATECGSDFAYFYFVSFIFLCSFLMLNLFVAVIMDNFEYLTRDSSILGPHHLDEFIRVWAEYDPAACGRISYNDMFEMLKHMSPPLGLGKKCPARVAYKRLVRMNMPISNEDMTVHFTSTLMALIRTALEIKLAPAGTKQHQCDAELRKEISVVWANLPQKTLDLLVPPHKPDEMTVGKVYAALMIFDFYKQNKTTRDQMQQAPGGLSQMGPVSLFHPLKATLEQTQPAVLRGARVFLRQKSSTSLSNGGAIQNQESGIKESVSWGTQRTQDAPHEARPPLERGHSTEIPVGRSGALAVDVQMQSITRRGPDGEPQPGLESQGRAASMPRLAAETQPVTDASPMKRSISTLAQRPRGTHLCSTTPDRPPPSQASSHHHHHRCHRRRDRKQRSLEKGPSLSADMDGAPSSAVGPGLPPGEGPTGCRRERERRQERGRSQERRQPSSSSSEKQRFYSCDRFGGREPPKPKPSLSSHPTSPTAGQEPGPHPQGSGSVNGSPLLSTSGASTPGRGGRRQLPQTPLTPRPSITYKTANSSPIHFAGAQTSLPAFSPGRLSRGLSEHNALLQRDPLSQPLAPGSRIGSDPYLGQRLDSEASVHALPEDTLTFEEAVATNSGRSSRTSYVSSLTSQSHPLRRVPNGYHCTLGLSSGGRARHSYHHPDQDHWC
T1 sequence (P54284 whole entry partner): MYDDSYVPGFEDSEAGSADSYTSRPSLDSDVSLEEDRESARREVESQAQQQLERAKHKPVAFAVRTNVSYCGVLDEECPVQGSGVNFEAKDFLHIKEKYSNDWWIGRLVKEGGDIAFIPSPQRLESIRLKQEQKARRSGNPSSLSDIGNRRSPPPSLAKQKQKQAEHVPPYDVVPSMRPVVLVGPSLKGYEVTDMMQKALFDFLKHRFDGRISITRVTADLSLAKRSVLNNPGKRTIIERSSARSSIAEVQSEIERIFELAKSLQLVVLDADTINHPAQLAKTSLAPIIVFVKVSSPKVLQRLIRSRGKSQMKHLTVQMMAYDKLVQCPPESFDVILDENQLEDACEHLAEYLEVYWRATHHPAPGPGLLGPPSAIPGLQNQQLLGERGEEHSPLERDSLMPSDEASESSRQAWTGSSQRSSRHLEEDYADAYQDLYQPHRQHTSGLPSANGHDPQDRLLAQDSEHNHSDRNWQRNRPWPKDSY
T1 sequence (P54289 25-946 partner limits assumed): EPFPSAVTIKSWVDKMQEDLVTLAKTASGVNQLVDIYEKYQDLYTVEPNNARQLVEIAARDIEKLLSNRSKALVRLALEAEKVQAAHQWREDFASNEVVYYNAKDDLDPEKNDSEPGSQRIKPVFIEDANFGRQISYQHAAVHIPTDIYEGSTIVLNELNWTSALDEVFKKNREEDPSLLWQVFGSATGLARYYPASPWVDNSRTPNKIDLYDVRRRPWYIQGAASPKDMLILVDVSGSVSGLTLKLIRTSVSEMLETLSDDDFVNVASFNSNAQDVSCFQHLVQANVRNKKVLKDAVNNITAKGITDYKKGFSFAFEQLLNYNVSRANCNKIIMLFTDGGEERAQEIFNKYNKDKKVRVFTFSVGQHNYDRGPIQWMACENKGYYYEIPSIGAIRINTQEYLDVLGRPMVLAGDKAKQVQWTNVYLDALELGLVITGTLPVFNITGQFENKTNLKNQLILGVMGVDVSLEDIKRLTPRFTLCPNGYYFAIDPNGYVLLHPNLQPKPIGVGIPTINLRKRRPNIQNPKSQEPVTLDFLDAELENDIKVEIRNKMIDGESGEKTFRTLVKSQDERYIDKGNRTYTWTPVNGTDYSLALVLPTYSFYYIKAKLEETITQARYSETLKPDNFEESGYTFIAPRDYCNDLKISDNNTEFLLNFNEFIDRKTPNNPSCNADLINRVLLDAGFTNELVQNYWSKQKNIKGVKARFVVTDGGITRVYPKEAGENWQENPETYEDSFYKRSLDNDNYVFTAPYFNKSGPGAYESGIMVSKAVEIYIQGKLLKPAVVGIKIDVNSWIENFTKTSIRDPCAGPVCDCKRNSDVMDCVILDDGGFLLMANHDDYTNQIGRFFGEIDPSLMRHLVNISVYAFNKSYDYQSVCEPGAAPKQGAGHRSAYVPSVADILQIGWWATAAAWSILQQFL
T1 sequence (P54289 947-1103 partner limits assumed): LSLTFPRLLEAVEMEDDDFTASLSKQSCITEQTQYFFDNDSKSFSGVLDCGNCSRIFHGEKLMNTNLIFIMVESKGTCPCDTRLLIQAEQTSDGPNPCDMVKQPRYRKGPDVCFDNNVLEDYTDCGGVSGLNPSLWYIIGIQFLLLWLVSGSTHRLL

With `COc1ccc(NS(=O)(=O)c2ccc3oc(C(=O)NC4CC4)c(C)c3c2)cc1` [compound 115], the IC50 under setting [1] lay within 5 to 20 µM. On to `Cc1c(C(=O)NC(C)C)[nH]c2ccc(S(=O)(=O)N3CCC(C)CC3)cc12` [compound 116], for which the IC50 under setting [1] lay in the range of 5 to 20 µM. In the case of `CCCCN(C)C(=O)c1[nH]c2ccc(S(=O)(=O)N3CCC(C)CC3)cc2c1C` [compound 117], under setting [1], the IC50 was less than 5 µM.

In the case of `Cc1c(C(=O)NCc2ccccc2)oc2ccc(S(=O)(=O)N3CCC4(CC3)OCCO4)cc12` [compound 118], the IC50 under setting [1] was less than 20 µM. Still for that read-out and setting: the figure for `CC1CCN(S(=O)(=O)c2ccc3oc(C(=O)NC4CCCC4)cc3c2)CC1` [compound 119] is less than 5 µM; for `Cc1c(C(=O)NCc2ccccc2)[nH]c2ccc(S(=O)(=O)N3CCC(C)CC3)cc12` [compound 120] it is less than 5 µM; for `CC1CCN(S(=O)(=O)c2ccc3[nH]c(CN4CCN(C)CC4)cc3c2)CC1` [compound 121] it is 5 to 20 µM. With `CC1CC(C)CN(S(=O)(=O)c2ccc3oc(C(=O)NC4CCCC4)cc3c2)C1` (centres unmarked) [compound 122], under setting [1], the concentration for half-maximal inhibition (IC50) was less than 5 µM. The same measure, in the same setting: under `Cc1c(C(=O)NC2CCCCC2C)oc2ccc(S(=O)(=O)N3CCOCC3)cc12` (centres unmarked) [compound 123] stands 5 to 20 µM. Same read-out and setting: under `Cc1c(C(=O)N2CC(C)CC(C)C2)oc2ccc(S(=O)(=O)N3CCCCC3)cc12` (centres unmarked) [compound 124] stands 5 to 20 µM; under `CC1CC(C)CN(S(=O)(=O)c2ccc3[nH]c(C(=O)N4CCCCCC4)cc3c2)C1` (centres unmarked) [compound 126], less than 5 µM; under `Cc1c(C(=O)N2CC(C)CC(C)C2)[nH]c2ccc(S(=O)(=O)N3CCC(C)CC3)cc12` (centres unmarked) [compound 127], 5 to 20 µM. Consider `Cc1c(C(=O)N2CCC(C)CC2)oc2ccc(S(=O)(=O)N3CCC(C)CC3)cc12` [compound 128], for which the IC50 under setting [1] lay within 5 to 20 µM. Same read-out and setting: the figure for `Cc1c(C(=O)NCCN2CCOCC2)oc2ccc(S(=O)(=O)N3CCC(C)CC3)cc12` [compound 129] is 5 to 20 µM.

In the case of `CCNC(=O)c1cc2cc(S(=O)(=O)N3CCC(C)CC3)ccc2[nH]1` [compound 130], the IC50 under setting [1] is less than 5 µM. Still for that read-out and setting: the figure for `CCNC(=O)c1cc2cc(S(=O)(=O)N3CCC(C)CC3)ccc2o1` [compound 131] is less than 5 µM; for `Cc1c(C(=O)NC2CCCCC2C)oc2ccc(S(=O)(=O)N3CCCC3)cc12` (centres unmarked) [compound 132] it is less than 20 µM.

Take `Cc1c(C(=O)NC2CC2)oc2ccc(S(=O)(=O)Nc3nncs3)cc12` [compound 133]: the IC50 under setting [1] was less than 20 µM. In the case of `Cc1c(C(=O)NCCCN2CCCC2=O)oc2ccc(S(=O)(=O)N3CC(C)CC(C)C3)cc12` (centres unmarked) [compound 134], under setting [1], the IC50 lay in the range of 5 to 20 µM. Regarding `CN1CCN(C(=O)c2cc3cc(S(=O)(=O)N4CCCCCC4)ccc3n2S(=O)(=O)c2ccccc2)CC1` [compound 135], under setting [1], the IC50 lay in the range of 5 to 20 µM. The same measure, in the same setting: the figure for `Cc1c(C(=O)NCCc2ccccc2)oc2ccc(S(=O)(=O)N3CCC4(CC3)OCCO4)cc12` [compound 136] is 5 to 20 µM; for `CC1CC(C)CN(S(=O)(=O)c2ccc3oc(C(=O)N(C(C)C)C(C)C)cc3c2)C1` (centres unmarked) [compound 137] it is less than 5 µM; for `CC1CCN(S(=O)(=O)c2ccc3oc(C(=O)N(C(C)C)C(C)C)cc3c2)CC1` [compound 138] it is less than 5 µM. On the same count and under the same terms, the figure for `CC1CCN(S(=O)(=O)c2ccc3cc(C(=O)NC4CC4)[nH]c3c2)CC1` [compound 139] is 5 to 20 µM; for `CC1CCN(S(=O)(=O)c2ccc3[nH]c(C(=O)N(C(C)C)C(C)C)cc3c2)CC1` [compound 140] it is less than 5 µM; for `CCCCN(C)C(=O)c1cc2cc(S(=O)(=O)N3CCC(C)CC3)ccc2[nH]1` [compound 141] it is less than 5 µM. Regarding `CC1CCN(S(=O)(=O)c2ccc3[nH]c(C(=O)NC(C)C)cc3c2)CC1` [compound 142], the IC50 under setting [1] is less than 5 µM.

For the compound `CC1CC(C)CN(S(=O)(=O)c2ccc3[nH]c(C(=O)N4CCCC4)cc3c2)C1` (centres unmarked) [compound 143], the IC50 under setting [1] is 5 to 20 µM.

In the case of `Cc1c(C(=O)N2CC(C)CC(C)C2)oc2ccc(S(=O)(=O)N3CCOCC3)cc12` (centres unmarked) [compound 144], the IC50 under setting [1] lay within 5 to 20 µM.

As for `CNC(=O)c1oc2ccc(S(=O)(=O)N3CCCCCC3)cc2c1C` [compound 145], under setting [1], the IC50 was less than 20 µM. For `Cc1c(C(=O)NC2CCCC2)[nH]c2ccc(S(=O)(=O)N3CCC(C)CC3)cc12` [compound 146], the IC50 under setting [1] is less than 5 µM. Regarding `CC1CCN(C(=O)c2cc3cc(S(=O)(=O)N4CCC(C)CC4)ccc3[nH]2)CC1` [compound 147], under setting [1], the IC50 is less than 5 µM. `Cc1c(C(=O)NC2CCCC2)oc2ccc(S(=O)(=O)N3CCC(C)CC3)cc12` [compound 148]: the IC50 under setting [1] is less than 5 µM. As for `Cc1c(C(=O)NCC2CCCO2)oc2ccc(S(=O)(=O)N3CCOCC3)cc12` (centres unmarked) [compound 149], the IC50 under setting [1] is less than 20 µM.

With `CCNC(=O)c1oc2ccc(S(=O)(=O)N3CCCCCC3)cc2c1C` [compound 150], the half-inhibitory concentration (IC50) under setting [1] lay in the range of 5 to 20 µM. As to `Cc1ccc(S(=O)(=O)Nc2ccc3[nH]c(C(=O)NC4CC4)cc3c2)cc1` [compound 151], the IC50 under setting [1] was in the range of 5 to 20 µM. For `Cc1c(C(=O)N2CCN(C)CC2)oc2ccc(S(=O)(=O)N3CCCCCC3)cc12` [compound 152], the IC50 under setting [1] lay within 5 to 20 µM. Regarding `Cc1c(C(=O)N2CCCCC2C)oc2ccc(S(=O)(=O)N3CC(C)CC(C)C3)cc12` (centres unmarked) [compound 153], the IC50 under setting [1] was less than 5 µM. Turning to `Cc1c(C(=O)NCc2ccc(F)cc2)oc2ccc(S(=O)(=O)N3CCC(C)CC3)cc12` [compound 154], the IC50 under setting [1] fell in the range of 5 to 20 µM.

`CNC(=O)c1oc2ccc(S(=O)(=O)N3CCCCC3)cc2c1C` [compound 155]: under setting [1], the IC50 is less than 20 µM. Take `CC1CC(C)CN(S(=O)(=O)c2ccc3oc(C(=O)N4CCC5(CC4)OCCO5)cc3c2)C1` (centres unmarked) [compound 156]: the IC50 is less than 5 µM.

In the case of `Cc1c(C(=O)NC(C)C)oc2ccc(S(=O)(=O)N3CCC(F)CC3)cc12` [compound 157], the IC50 under setting [1] fell in the range of 5 to 20 µM. Take `CCOC(=O)N1CCN(C(=O)c2cc3cc(S(=O)(=O)N4CCC(C)CC4)ccc3o2)CC1` [compound 158]: the IC50 under setting [1] was less than 20 µM. For the compound `Cc1c(C(=O)N(C(C)C)C(C)C)oc2ccc(S(=O)(=O)N3CCCCCC3)cc12` [compound 159], under setting [1], the IC50 was 5 to 20 µM. On the same count and under the same terms, under `Cc1c(C(=O)N2CCN(C)CC2)[nH]c2ccc(S(=O)(=O)N3CC(C)CC(C)C3)cc12` (centres unmarked) [compound 160] stands 5 to 20 µM. `Cc1c(C(=O)N2CCC3(CC2)OCCO3)oc2ccc(S(=O)(=O)N3CCCCCC3)cc12` [compound 161]: the IC50 was 5 to 20 µM. For the compound `CCN(CC)C(=O)c1oc2ccc(S(=O)(=O)N3CCOCC3)cc2c1C` [compound 162], the IC50 under setting [1] is less than 20 µM. Consider `Cc1c(C(=O)N2CCC(C)CC2)oc2ccc(S(=O)(=O)N3CCOCC3)cc12` [compound 163], for which the IC50 under setting [1] is less than 20 µM. As to `CCN(CC)S(=O)(=O)c1ccc2oc(C(=O)N3CC(C)CC(C)C3)c(C)c2c1` (centres unmarked) [compound 164], under setting [1], the IC50 was less than 5 µM. The same measure, in the same setting: under `CN1CCN(C(=O)c2cc3cc(S(=O)(=O)N4CCCCCC4)ccc3o2)CC1` [compound 165] stands 5 to 20 µM. Consider `Cc1c(C(=O)NCC2CCOCC2)[nH]c2ccc(S(=O)(=O)N3CCC(C)CC3)cc12` [compound 166], for which the IC50 under setting [1] was less than 20 µM. With `COc1ccccc1CNC(=O)c1oc2ccc(S(=O)(=O)N3CCOCC3)cc2c1C` [compound 167], the IC50 under setting [1] was less than 20 µM. On the same count and under the same terms, under `CCN(CC)C(=O)c1[nH]c2ccc(S(=O)(=O)N3CCC(C)CC3)cc2c1C` [compound 168] stands 5 to 20 µM; under `O=C(c1cc2cc(S(=O)(=O)N3CCCCCC3)ccc2o1)N1CCCCCC1` [compound 169], less than 5 µM.

As for `CC1CCCN(C(=O)c2cc3cc(S(=O)(=O)N4CCCCCC4)ccc3o2)C1` (centres unmarked) [compound 170], the IC50 under setting [1] is less than 5 µM. On to `CC1CCCN(C(=O)c2cc3cc(S(=O)(=O)N4CC(C)CC(C)C4)ccc3[nH]2)C1` (centres unmarked) [compound 171], for which, under setting [1], the IC50 is less than 5 µM.
